Measured values as given in the supplement of paper PMC11061612.

How the values were obtained:
Hey (Ovarian Carcinoma) = experiment: Bliss excess, mean over the matrix (fraction); higher = more synergy
Method in brief: (§1)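 Cell lines grown in DMEM/F12 or RPMI with 10% FBS were plated in 1536-well plates and held 24 hours at 37°C, 5% CO2 before 72 hours of exposure to two-drug dose matrices, with DMSO typically at 0.2%. CellTiter-Glo 2.0 luminescence gave viability, which was converted to inhibition. Vehicle wells were set to 0 and blank wells to 1. Combination Emax is the second-highest inhibition in the matrix, and Bliss excess is the observed combination effect minus the expected EA + EB − EA·EB, where EA and EB are the single-agent effects.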

[1] = system: NCI-H1092 (Small Cell Lung Carcinoma); experiment: as above
Method in brief: as §1

[2] = system: COLO-668 (Small Cell Lung Carcinoma); experiment: combination Emax (second highest fraction inhibited in the dose matrix, 72 h); higher = more inhibition; extreme values may be limits of the assay
Method in brief: as §1

COLO-679 (Melanoma) = experiment: as above
Method in brief: as §1

[3] = system: Ca-Ski (Cervical Carcinoma); experiment: as above
Method in brief: as §1

[4] = system: DU-145 (Prostate Carcinoma); experiment: as above
Method in brief: as §1

EW-1 (Ewing's Sarcoma) = experiment: as above
Method in brief: as §1

[5] = system: G-401 (Other Solid Carcinomas); experiment: as above
Method in brief: as §1

[6] = system: KMRC-1 (Kidney Carcinoma); experiment: as above
Method in brief: as §1

[7] = system: LC-1-sq (Squamous Cell Lung Carcinoma); experiment: as above
Method in brief: as §1

[8] = system: ML-2 (Acute Myeloid Leukemia); experiment: as above
Method in brief: as §1

[9] = system: MV-4-11 (Acute Myeloid Leukemia); experiment: as above
Method in brief: as §1

[10] = system: Mo-T (Other Blood Carcinomas); experiment: as above
Method in brief: as §1

[11] = system: NCI-H1355 (Lung Adenocarcinoma); experiment: as above
Method in brief: as §1

[12] = system: NCI-H522 (Lung Adenocarcinoma); experiment: as above
Method in brief: as §1

[13] = system: OE33 (Esophageal Adenocarcinoma); experiment: as above
Method in brief: as §1

[14] = system: SK-LU-1 (Lung Adenocarcinoma); experiment: as above
Method in brief: as §1

[15] = system: SNU-387 (Hepatocellular Carcinoma); experiment: as above
Method in brief: as §1

[16] = system: SW872 (Other Solid Carcinomas); experiment: as above
Method in brief: as §1

[17] = system: SW982 (Other Solid Carcinomas); experiment: as above
Method in brief: as §1
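Wherever Bliss excess, mean over the matrix is given: after 72 h of two-drug dosing.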

Cc1c2c(nn1C)CSCc1cc(n(C)n1)CSc1cc(c3ccccc3c1)OCCCc1c(C(=O)O)n(C)c3c-2c(Cl)ccc13 [AZD5991] + C=CCn1c(=O)c2cnc(Nc3ccc(N4CCN(C)CC4)cc3)nc2n1-c1cccc(C(C)(C)O)n1 [AZD1775] (first compound max 1 µM, partner max 1 µM)
Bliss excess (Hey (Ovarian Carcinoma)): -0.0325
Bliss excess [1]: -0.048
combination Emax [2]: 0.464
combination Emax (COLO-679 (Melanoma)): 0.529
combination Emax [3]: 0.816
combination Emax [4]: 0.373
combination Emax (EW-1 (Ewing's Sarcoma)): 0.974
combination Emax [5]: 0.901
combination Emax [6]: 0.275
combination Emax [7]: 0.851
combination Emax [8]: 1
combination Emax [9]: 1
combination Emax [10]: 0.562
combination Emax [11]: 0.57
combination Emax [12]: 0.516
combination Emax [13]: 0.573
combination Emax [14]: 0.575
combination Emax [15]: 0.581
combination Emax [16]: 0.374
combination Emax [17]: 0.798
